The record followed here is patent publication US8455186B2, “Method of detection of microorganisms with enhanced bacteriophage amplification” (priority 2007, dated 2013).

Molecules are shown by their SMILES.

Experiment [1] concerns S. aureus strains. In words: Stimulation of bacteriophage amplification by fatty acid compounds, all hosts tested. The conditions noted are these: for effect on bacteriophage amplification: fatty acid compound added to growth medium.
Experiment [2] has as its system clinical isolates of S. aureus (poorest hosts for bacteriophage amplification). In words: Bacteriophage amplification (MP112 and MP115) on poor or restrictive S. aureus hosts with lauric acid (FIG. 1).
Description: The 28 strains in this study were chosen from a collection of 202 clinical isolates as the poorest hosts for bacteriophage amplification.
Experiment [3] concerns clinical MRSA (methicillin-resistant S. aureus) isolates. In words: Phage amplification in MRSA strains with cefoxitin and/or lauric acid (FIG. 3).
Description: In FIG. 3, each symbol represents a clinical MRSA (methicillin-resistant S. aureus) isolate able to grow in the presence of β-lactam antibiotics such as cefoxitin. The first column 62 (circles) indicates amplification by MRSA strains with no cefoxitin and no lauric acid. The second column 64 (squares) indicates amplification with added cefoxitin. […] The third column 66 (diamonds) indicates amplification with added lauric acid. The fourth column 70 (x's) indicate amplification with added lauric acid and cefoxitin.
For experiment [4], the system named is clinical isolates of S. aureus (good bacteriophage hosts). In words: Bacteriophage amplification on permissive (good) S. aureus hosts with lauric acid (FIG. 2).
Experiment [5] has as its system S. aureus strains. In words: Bacteriophage mean amplification versus sodium pyruvate concentration (FIG. 5). The class given is cell-based, Staphylococcus aureus.
Experiment [6] concerns panel of 32 S. aureus strains. In words: Bacteriophage sensitivity versus sodium pyruvate concentration (FIG. 4).

In the case of `CCCCCCCC/C=C\CCCCCCCC(=O)O` [oleic acid], the “effect on bacteriophage amplification” value in experiment [1] is reported as “positively stimulate bacteriophage amplification”.

`CCCCC/C=C\C/C=C\CCCCCCCC(=O)O` [linoleic acid]: in experiment [1], the “effect on bacteriophage amplification” value is given as “positively stimulate bacteriophage amplification”.

In the case of `CCCCCCCC(=O)O` [caprylic acid], the “effect on bacteriophage amplification” value in experiment [1] is “positively stimulate bacteriophage amplification”.

In the case of `CCCCCCCCCCCC(=O)O` [lauric acid], the “S. aureus strains tested showing stimulation of bacteriophage amplification” value in experiment [1] (in response to lauric acid, strains tested to date) was “more than 80%”. In experiment [2] (30 μg/ml lauric acid, 28 poor-host strains, four hours at 35°, three-fold with no lauric acid), the “average level of amplification (output pfu/ml divided by input pfu/ml)” value is 45 fold. In addition, in experiment [2] (FIG. 1 legend), the “effect on amplification on poor or restrictive S. aureus hosts” value was “improves amplification”. Also, the “effect on phage amplification in MRSA strains” value in experiment [3] (added lauric acid and cefoxitin) was “relieves suppression of phage amplification by cefoxitin”. Moreover, in experiment [4] (FIG. 2 legend), the “effect on bacteriophage amplification on permissive S. aureus hosts” value was “increases bacteriophage amplification”. The average amplification entry in experiment [4] (with the addition of lauric acid (5-30 μg/ml), good hosts, 69-fold without) is recorded as “over 100 fold”.

Regarding `CCCCCCCCCC(=O)O` [capric acid], the “effect on bacteriophage amplification” value in experiment [1] is recorded as “positively stimulate bacteriophage amplification”.

As for `CCCCCCCCCCCC(=O)OCC(O)CO` (stereo not shown) [glycerol monolaurate], the “effect on bacteriophage amplification” value in experiment [1] is recorded as “positively stimulate bacteriophage amplification”.

On to `CCCCCCCCCCCCCC(=O)O` [myristic acid], for which the “effect on bacteriophage amplification” value in experiment [1] is given as “positively stimulate bacteriophage amplification”.

For the compound `CC(=O)C(=O)[O-].[Na+]` [sodium pyruvate], the “effect on mean amplification of the bacteriophage” value in experiment [5] (about 10 mmol/L to 60 mmol/L sodium pyruvate) is “increased significantly”. Moreover, in experiment [5] (about 30 mmol/L sodium pyruvate, about 92 without), the “mean amplification of the bacteriophage” value amounted to 150. In addition, in experiment [6] (10 mmol/L to 50 mmol/L sodium pyruvate, wide variety of S. aureus strains), the “effect on phage sensitivity” value is reported as “significantly increase phage sensitivity”. Moreover, the phage sensitivity result in experiment [6] (15 mmol/L to 31 mmol/L sodium pyruvate) is “above 90%”. Moreover, the “increase of sensitivity over sensitivities without sodium pyruvate” value in experiment [6] (27 mmol/L sodium pyruvate) was “about 15%”.

Turning to `CO[C@@]1(NC(=O)Cc2cccs2)C(=O)N2C(C(=O)O)=C(COC(N)=O)CS[C@@H]21` [cefoxitin, reference compound], the “effect on phage amplification in MRSA strains” value in experiment [3] (added cefoxitin, no lauric acid) was “suppression of phage amplification”.

As for `CCCCCC(=O)O` [caproic acid], the “effect on bacteriophage amplification” value in experiment [1] is listed as “positively stimulate bacteriophage amplification”.
